Measurements from US11478445B2, “Method for treating acute myeloid leukemia” (Bionomics Limited, priority 2017, dated 2022).
Entries after “also recorded” stand apart in the source; their conditions may differ.

Assays:
[1] = system: healthy control (HC) BMMNC samples; test: Viability (Annexin V/7AAD) assay, healthy control samples; format: cell-based, human
Protocol: Cryopreserved mononuclear cells (MNC from BM or leukapheresis samples) were thawed in a water bath at 37° C. and cell suspension transferred to a 50 mL tube. 20 mL of IMDM media (Sigma, 13390) supplemented with 20% FBS (JRH Biosciences), 50 U/mL DNase I (Sigma), 100 IU/mL penicillin (Sigma), 100 μg/mL streptomycin (Sigma) and 2 mM L-glutamine (Sigma) was added dropwise to the cells while the tube was being vortexed slowly (or mixed by hand). The cells were centrifuged at 400 g for 5 min, supernatant was discarded and the cells were washed once with 20 mL PBS. After the wash, the cells were resuspended in 25 mL IMDM (Sigma, 13390) supplemented with 20% FBS (JRH Biosciences), 100 IU/mL penicillin (Sigma), 100 μg/mL streptomycin (Sigma) and 2 mM L-glutamine (Sigma), and incubated overnight for recovery. The next morning, viability was determined by trypan blue exclusion and samples with viability lower than 85% underwent dead cell removal by density gradient centrifugation as follows: 15 mL of Lymphoprep (AXIS-Shield) was transferred to a 50 mL tube and the cell suspension (25 mL) carefully overlayed (so as not to disturb the interface mixing with the Lymphoprep). The tubes were centrifuged at 800 g for 20 min with acceleration set at 5 (half of the maximum) and no brake. MNC layer (formed in the interface between the media and the Lymphoprep) was transferred with a disposable Pasteur pipet into a 50 mL tube containing 20 mL PBS. […] Viability and cell density were determined by trypan blue exclusion and cells were plated for respective experiments as described in the Results section.
2×10^5 cells (200 μL) were harvested in 5 mL tubes and washed 3 times with PBS. […] Results were analysed with FCS Express 4 Flow Research Edition software (De Novo Software). […]

Noxa = test: Western blot for Noxa in primary AML sample L-AML6; format: cell-based, human; conditions: L-AML6, 48 h
Protocol: Cells were harvested (4×10^6 for cell lines and 7×10^6 for L-AMLs) and washed 3 times with cold PBS (centrifuged at 4° C.). Lysis buffer was prepared with NP40 Cell Lysis Buffer (ThermoFisher Scientific), cOmplete protease inhibitor (Roche, 046993116001), PhosStop (Roche, 04906837001) and Pefablock (Roche, 11585916001) at the recommended concentrations. After the washes, cells were resuspended in 50 μL of lysis buffer, vortexed and incubated on ice for 30 min. Samples were vortexed every 10 min. After 30 min incubation, samples were centrifuged at 14,000 g at 4° C. for 10 min and supernatants were transferred to tubes. Protein was quantified using the DC Protein Assay kit (BioRad) per manufacturer's protocol. 50 μg of cell lines lysate or 20 μg of L-AML6 lysate were loaded for SDS-PAGE. Protein was transferred from the gels into PVDF membranes using a semi dry transfer apparatus (BioRad). The membranes were blocked for 1 h at room temperature with 5% skim milk in 0.1% TBS-t and then incubated with gentle shaking with primary antibodies overnight at 4° C. […]
Western blot analysis. […] For L-AML6 cells P-JNK^Thr183/Tyr185 and Noxa expression were determined using the specific antibodies that have been validated in the cell line experiments (FIG. 4). […]

SMILES | viability (live cells, Annexin V/7AAD) ([1]; 48 h) | viability (live cells, Annexin V/7AAD) ([1]; up to 72 h) | Noxa expression (Noxa) | response to treatment (viability) [1]
COc1cc(C(=O)c2c(C)oc3c(O)c(OC)ccc23)cc(OC)c1OC [EX 1, 2-Methyl-7-hydroxy-3-(3,4,5-trimethoxybenzoyl)-6-methoxybenzofuran] | some reduced viability | viability remained stable | no change was observed; also recorded: does not appear to change | 
COc1cc(/C=C\c2ccc(OC)c(OP(=O)(O)O)c2OP(=O)(O)O)cc(OC)c1OC [OXi4503, reference compound] |  |  | no change was observed; also recorded: does not appear to change | did not show a response
